Assay results as given in US5434246A, “Parathyroid hormone derivatives” (Takeda Chemical Industries, Ltd., priority 1992, dated 1995).
Square brackets hold non-standard residues; d marks the D form. Ends that are not written are not given here. Peptide text beside a SMILES is read from it. hCit = NC(=O)NCCCC[C@H](N)C(=O)O; Orn = NCCC[C@H](N)C(=O)O

Biological target: T1, PTH receptor (Mus musculus, UniProt P41593)
T1 construct: a mouse cranial bone-derived osteoblast-like cell strain, MC3T3-EI cells; endogenous in cells; host or cells: MC3T3-E1 mouse osteoblast-like cells
T1 sequence (P41593 27-591): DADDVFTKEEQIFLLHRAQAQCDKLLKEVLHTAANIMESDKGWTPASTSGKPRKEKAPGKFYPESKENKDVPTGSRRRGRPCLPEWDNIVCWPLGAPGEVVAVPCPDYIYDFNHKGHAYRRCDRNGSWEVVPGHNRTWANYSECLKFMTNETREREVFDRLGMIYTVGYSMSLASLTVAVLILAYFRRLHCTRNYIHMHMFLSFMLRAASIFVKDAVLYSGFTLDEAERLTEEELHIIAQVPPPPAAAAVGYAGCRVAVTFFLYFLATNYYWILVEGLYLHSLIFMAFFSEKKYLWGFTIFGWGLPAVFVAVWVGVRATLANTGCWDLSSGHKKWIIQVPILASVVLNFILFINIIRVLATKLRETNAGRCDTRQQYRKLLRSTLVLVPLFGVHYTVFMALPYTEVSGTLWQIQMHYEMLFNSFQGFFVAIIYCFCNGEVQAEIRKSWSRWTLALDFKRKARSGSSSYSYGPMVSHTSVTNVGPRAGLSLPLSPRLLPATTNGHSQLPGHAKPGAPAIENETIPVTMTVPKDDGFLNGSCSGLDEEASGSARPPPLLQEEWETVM
Experiment: cAMP production in MC3T3-EI osteoblast-like cells (biological activity of PTH(1-34) derivatives)
Type: cell-based
Details: 0.01-100 nM derivative, room temperature 30 minutes, hPTH(1-34) standard = 1.00
Method: The biological activity of the PTH (1-34) derivatives was evaluated by a modified version of the method reported by Shigeno et al. in The Journal of Biological Chemistry 263, 18369-18377 (1988). A culture solution (Hank's solution, containing 20 mM N-2-hydroxyethylpiperazine-N'-2-ethanesulfonic acid-(HEPES), 0.1% bovine serum albumin and 0.5 mM isobutylmethyl-xanthine) containing a 0.01, 0.1, 1, 10 or 100 nM derivative was added in an amount of 100 μl to a mouse cranial bone-derived osteoblast-like cell strain, MC3T3-EI cells, cultivated on a 96-well multiplate (Nunclon, Nunc), followed by reaction at room temperature for 30 minutes. After addition of 100 μl of 0.2N hydrochloric acid, the mixture was immersed in boiling water for 2.5 minutes, and cyclic adenosine monophosphate (cAMP) produced by a PTH receptor was extracted from the cells. The total cAMP in the culture solution and the cells was assayed using a commercial radioimmunoassay kit (cyclic AMP [^125 I] kit "Du Pont-Daiichi", Daiichi Kagaku Yakuhin).

Biological Activity, Represented by Relative Activity to hPTH(1-34) | Compound
1.54 | CC[C@H](C)[C@H](NC(=O)[C@H](CCC(=O)O)NC(=O)[C@H](CO)NC(=O)[C@@H](NC(=O)[C@@H](N)CO)C(C)C)C(=O)N[C@@H](CCC(N)=O)C(=O)N[C@@H](CC(C)C)C(=O)N[C@@H](CCSC)C(=O)N[C@@H](Cc1c[nH]cn1)C(=O)N[C@@H](CC(N)=O)C(=O)N[C@@H](CC(C)C)C(=O)NCC(=O)N[C@@H](CCCCN)C(=O)N[C@@H](Cc1c[nH]cn1)C(=O)N[C@@H](CC(C)C)C(=O)N[C@@H](CCCCNC(N)=O)C(=O)N[C@@H](CO)C(=O)N[C@@H](CCSC)C(=O)N[C@@H](CCC(=O)O)C(=O)N[C@@H](CCCNC(=N)N)C(=O)N[C@H](C(=O)N[C@@H](CCC(=O)O)C(=O)N[C@@H](Cc1c[nH]c2ccccc12)C(=O)N[C@@H](CC(C)C)C(=O)N[C@@H](CCCNC(=N)N)C(=O)N[C@@H](CCCCN)C(=O)N[C@@H](CCC(N)=O)C(=O)N[C@@H](CC(C)C)C(=O)N[C@@H](CCC(N)=O)C(=O)N[C@@H](CC(=O)O)C(=O)N[C@H](C(=O)N[C@@H](Cc1c[nH]cn1)C(=O)N[C@@H](CC(N)=O)C(=O)N[C@@H](Cc1ccccc1)C(=O)O)C(C)C)C(C)C [[Hci^16,Gln^27]hPTH(1-34)] (H-SVSEIQLMHNLGKHL[hCit]SMERVEWLRKQLQDVHNF-OH)
1.82 | CC[C@H](C)[C@H](NC(=O)[C@H](CCC(=O)O)NC(=O)[C@H](CO)NC(=O)[C@@H](NC(=O)[C@@H](N)CO)C(C)C)C(=O)N[C@@H](CCC(N)=O)C(=O)N[C@@H](CC(C)C)C(=O)N[C@@H](CCSC)C(=O)N[C@@H](Cc1c[nH]cn1)C(=O)N[C@@H](CC(N)=O)C(=O)N[C@@H](CC(C)C)C(=O)NCC(=O)N[C@@H](CCCCN)C(=O)N[C@@H](Cc1c[nH]cn1)C(=O)N[C@@H](CC(C)C)C(=O)N[C@@H](CCCN)C(=O)N[C@@H](CO)C(=O)N[C@@H](CCSC)C(=O)N[C@@H](CCC(=O)O)C(=O)N[C@@H](CCCNC(=N)N)C(=O)N[C@H](C(=O)N[C@@H](CCC(=O)O)C(=O)N[C@@H](Cc1c[nH]c2ccccc12)C(=O)N[C@@H](CC(C)C)C(=O)N[C@@H](CCCNC(=N)N)C(=O)N[C@@H](CCCCN)C(=O)N[C@@H](CCC(N)=O)C(=O)N[C@@H](CC(C)C)C(=O)N[C@@H](CCC(N)=O)C(=O)N[C@@H](CC(=O)O)C(=O)N[C@H](C(=O)N[C@@H](Cc1c[nH]cn1)C(=O)N[C@@H](CC(N)=O)C(=O)N[C@@H](Cc1ccccc1)C(=O)O)C(C)C)C(C)C [[Orn^16,Gln^27]hPTH(1-34), [Orn^16,Gln^27]hPTH(1-45)] (H-SVSEIQLMHNLGKHL[Orn]SMERVEWLRKQLQDVHNF-OH)
1.74 | CC[C@H](C)[C@H](NC(=O)[C@H](CCC(=O)O)NC(=O)[C@H](CO)NC(=O)[C@@H](NC(=O)[C@@H](N)CO)C(C)C)C(=O)N[C@@H](CCC(N)=O)C(=O)N[C@@H](CC(C)C)C(=O)N[C@@H](CCSC)C(=O)N[C@@H](Cc1c[nH]cn1)C(=O)N[C@@H](CC(N)=O)C(=O)N[C@@H](CC(C)C)C(=O)NCC(=O)N[C@@H](CCCCN)C(=O)N[C@@H](Cc1c[nH]cn1)C(=O)N[C@@H](CC(C)C)C(=O)N[C@H](C(=O)N[C@@H](CO)C(=O)N[C@@H](CCSC)C(=O)N[C@@H](CCC(=O)O)C(=O)N[C@@H](CCCNC(=N)N)C(=O)N[C@H](C(=O)N[C@@H](CCC(=O)O)C(=O)N[C@@H](Cc1c[nH]c2ccccc12)C(=O)N[C@@H](CC(C)C)C(=O)N[C@@H](CCCNC(=N)N)C(=O)N[C@@H](CCCCN)C(=O)N[C@@H](CCCCN)C(=O)N[C@@H](CC(C)C)C(=O)N[C@@H](CCC(N)=O)C(=O)N[C@@H](CC(=O)O)C(=O)N[C@H](C(=O)N[C@@H](Cc1c[nH]cn1)C(=O)N[C@@H](CC(N)=O)C(=O)N[C@@H](Cc1ccccc1)C(=O)O)C(C)C)C(C)C)[C@@H](C)O [[Thr^16]hPTH(1-34)]
0.96 | CC[C@H](C)[C@H](NC(=O)[C@H](CCC(=O)O)NC(=O)[C@H](CO)NC(=O)[C@@H](NC(=O)[C@@H](N)CO)C(C)C)C(=O)N[C@@H](CCC(N)=O)C(=O)N[C@@H](CC(C)C)C(=O)N[C@@H](CCSC)C(=O)N[C@@H](Cc1c[nH]cn1)C(=O)N[C@@H](CC(N)=O)C(=O)N[C@@H](CC(C)C)C(=O)NCC(=O)N[C@@H](CCCCN)C(=O)N[C@@H](Cc1c[nH]cn1)C(=O)N[C@@H](CC(C)C)C(=O)N[C@@H](CC(N)=O)C(=O)N[C@@H](CO)C(=O)N[C@@H](CCSC)C(=O)N[C@@H](CCC(=O)O)C(=O)N[C@@H](CCCNC(=N)N)C(=O)N[C@H](C(=O)N[C@@H](CCC(=O)O)C(=O)N[C@@H](Cc1c[nH]c2ccccc12)C(=O)N[C@@H](CC(C)C)C(=O)N[C@@H](CCCNC(=N)N)C(=O)N[C@@H](CCCCN)C(=O)N[C@H](C(=O)N[C@@H](CC(C)C)C(=O)N[C@@H](CCC(N)=O)C(=O)N[C@@H](CC(=O)O)C(=O)N[C@H](C(=O)N[C@@H](Cc1c[nH]cn1)C(=O)N[C@@H](CC(N)=O)C(=O)N[C@@H](Cc1ccccc1)C(=O)O)C(C)C)[C@@H](C)O)C(C)C [[Thr^27]hPTH(1-34)]
1.00 | CC[C@H](C)[C@H](NC(=O)[C@H](CCC(=O)O)NC(=O)[C@H](CO)NC(=O)[C@@H](NC(=O)[C@@H](N)CO)C(C)C)C(=O)N[C@@H](CCC(N)=O)C(=O)N[C@@H](CC(C)C)C(=O)N[C@@H](CCSC)C(=O)N[C@@H](Cc1c[nH]cn1)C(=O)N[C@@H](CC(N)=O)C(=O)N[C@@H](CC(C)C)C(=O)NCC(=O)N[C@@H](CCCCN)C(=O)N[C@@H](Cc1c[nH]cn1)C(=O)N[C@@H](CC(C)C)C(=O)N[C@@H](CC(N)=O)C(=O)N[C@@H](CO)C(=O)N[C@@H](CCSC)C(=O)N[C@@H](CCC(=O)O)C(=O)N[C@@H](CCCNC(=N)N)C(=O)N[C@H](C(=O)N[C@@H](CCC(=O)O)C(=O)N[C@@H](Cc1c[nH]c2ccccc12)C(=O)N[C@@H](CC(C)C)C(=O)N[C@@H](CCCNC(=N)N)C(=O)N[C@@H](CCCCN)C(=O)N[C@@H](CCCCN)C(=O)N[C@@H](CC(C)C)C(=O)N[C@@H](CCC(N)=O)C(=O)N[C@@H](CC(=O)O)C(=O)N[C@H](C(=O)N[C@@H](Cc1c[nH]cn1)C(=O)N[C@@H](CC(N)=O)C(=O)N[C@@H](Cc1ccccc1)C(=O)O)C(C)C)C(C)C [hPTH(1-34), reference compound]
7.47 | SVSEIQLMHNLGKHKKKMERVEWLRKHLQDVHNF [[Lys^15,16,17,His^27]hPTH (1-34), [Lys^15,16,17,His^27]hPTH(1-34)]
7.62 | SVSEIQLMHNLGKHKKKMERVEWLRKKLQDVHNF [[Lys^15,16,17]hPTH (1-34), [Lys^15,16,17]hPTH(1-34)]
1.49 | SVSEIQLMHNLGKHKKSMERVEWLRKHLQDVHNF [[Lys^15,16,His^27]hPTH(1-34)]
1.24 | SVSEIQLMHNLGKHLKDMERVEWLRKKLQDVHNF [[Lys^16,Asp^17]hPTH(I-34), [Lys^16 Asp^17]hPTH(1-3)]
8.85 | SVSEIQLMHNLGKHLKKMERVEWLRKKLQDVHNF [[Lys^16,17]hPTH(1-34)]
0.41 | SVSEIQLMHNLGKHLNSMERVEWLQQQLQDVHNF [[Gln^25,26,27]hPTH (1-34), [Gln^25,26,27]hPTH(1-34)]
1.19 | SVSEIQLMHNLGKHLNSMERVEWLRQQLQDVHNF [[Gln^26,27]hPTH(1-34)]
0.98 | SVSEIQLMHNLGKHLNSMERVEWLRRRLQDVHNF [[Arg^26,27]hPTH (1-34), [Arg^26,27]hPTH(1-34)]
2.16 | SVSEIQLMHNLGKHLRSMERVEWLRKQLQDVHNF [[Arg^16,Gln^27]hPTH(1-34)]
6.39 | SVSEIQLMHNLGKKKKKMERVEWLRKKLQDVHNF [[Lys^14,15,16,17]hPTH (1-34), [Lys^14,15,16,17]hPTH(1-34)]
